Data as given in PubChem BioAssay AID2060899 (Molecular Pharmacology Branch, DTP, NCI, 2025).
Several values for one entry are separate records, joined by “and”; a condition that tells them apart may be missing. Equal entries are not always repeated.

System: 565726-208-R1-J5-PDC complex spheroids, growth inhibition
Test: Anticancer human tumor 565726-208-R1-J5-PDC patient-derived pancreatic adenocarcinoma cell line growth inhibition [RAS]
Conditions: for viability, T/C: stronger effect = lower value
Method in brief: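 Tumour cells grown as complex spheroids with HUVEC endothelial cells and mesenchymal stem cells, treated with RAS pathway inhibitor combinations. Each agent spans half-log steps from near clinical Cmax, or 10 microM where Cmax is unknown.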
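Note: spheroids exposed to compounds for seven days before readout.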
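Throughout, for viability, T/C: 100% = DMSO vehicle control viability.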

Compound: CCC(CC)c1cc(NC2CCC(N)C2)n2nccc2n1 (centres undefined) + CCn1c(-c2cccnc2C(C)OC)c2c3cc(ccc31)N1CCOC(CC(NC(=O)C(C(C)C)N(C)C(=O)C3(F)CCN(C(=O)C#CC(C)(C)N(C)C)CC3)C(=O)N3CCCC(N3)C(=O)OCC(C)(C)C2)C1
- IC50 (curve of first compound, second compound 0.000949 µM): 1430 nM
- IC50 (curve of first compound, second compound 0.003 µM): 1490 nM
- IC50 (curve of first compound, second compound 0.00949 µM): 1480 nM
- IC50 (curve of first compound, second compound 0.03 µM): 1380 nM
- IC50 (curve of first compound, second compound 0.0949 µM): 1340 nM
- IC50 (curve of first compound, second compound 0.3 µM): 1040 nM
- viability, T/C (second compound 0.000949 µM, first compound 0.0316 µM): 106%
- viability, T/C (second compound 0.000949 µM, first compound 0.1 µM): 103%
- viability, T/C (second compound 0.000949 µM, first compound 0.316 µM): 101%
- viability, T/C (second compound 0.000949 µM, first compound 1 µM): 72%
- viability, T/C (second compound 0.000949 µM, first compound 3.16 µM): 0.76%
- viability, T/C (second compound 0.000949 µM, first compound 10 µM): 0.94%
- viability, T/C (second compound 0.003 µM, first compound 0.0316 µM): 104%
- viability, T/C (second compound 0.003 µM, first compound 0.1 µM): 104%
- viability, T/C (second compound 0.003 µM, first compound 0.316 µM): 115%
- viability, T/C (second compound 0.003 µM, first compound 1 µM): 76.4%
- viability, T/C (second compound 0.003 µM, first compound 3.16 µM): 0.77%
- viability, T/C (second compound 0.003 µM, first compound 10 µM): 0.9%
- viability, T/C (second compound 0.00949 µM, first compound 0.0316 µM): 112%
- viability, T/C (second compound 0.00949 µM, first compound 0.1 µM): 105%
- viability, T/C (second compound 0.00949 µM, first compound 0.316 µM): 101%
- viability, T/C (second compound 0.00949 µM, first compound 1 µM): 74.9%
- viability, T/C (second compound 0.00949 µM, first compound 3.16 µM): 0.96%
- viability, T/C (second compound 0.00949 µM, first compound 10 µM): 0.75%
- viability, T/C (second compound 0.03 µM, first compound 0.0316 µM): 108%
- viability, T/C (second compound 0.03 µM, first compound 0.1 µM): 109%
- viability, T/C (second compound 0.03 µM, first compound 0.316 µM): 115%
- viability, T/C (second compound 0.03 µM, first compound 1 µM): 68.9%
- viability, T/C (second compound 0.03 µM, first compound 3.16 µM): 0.82%
- viability, T/C (second compound 0.03 µM, first compound 10 µM): 1.41%
- viability, T/C (second compound 0.0949 µM, first compound 0.0316 µM): 92.9%
- viability, T/C (second compound 0.0949 µM, first compound 0.1 µM): 109%
- viability, T/C (second compound 0.0949 µM, first compound 0.316 µM): 94.7%
- viability, T/C (second compound 0.0949 µM, first compound 1 µM): 66.9%
- viability, T/C (second compound 0.0949 µM, first compound 3.16 µM): 0.68%
- viability, T/C (second compound 0.0949 µM, first compound 10 µM): 0.5%
- viability, T/C (second compound 0.3 µM, first compound 0.0316 µM): 78.5%
- viability, T/C (second compound 0.3 µM, first compound 0.1 µM): 88.7%
- viability, T/C (second compound 0.3 µM, first compound 0.316 µM): 96.4%
- viability, T/C (second compound 0.3 µM, first compound 1 µM): 51.9%
- viability, T/C (second compound 0.3 µM, first compound 3.16 µM): 0.87%
- viability, T/C (second compound 0.3 µM, first compound 10 µM): 1.78%

Compound: C[C@@H](NC(=O)c1ncnc(N)c1Cl)c1ncc(C(=O)Nc2cc(C(F)(F)F)c(Cl)cn2)s1 + C#Cc1c(F)ccc2cc(O)cc(-c3ncc4c(N5CC6CCC(C5)N6)nc(OCC56CCCN5CC(F)C6)nc4c3F)c12
- IC50 (curve of first compound, second compound 0.0316 µM): > 10000 nM
- IC50 (curve of first compound, second compound 0.1 µM): > 10000 nM
- IC50 (curve of first compound, second compound 0.316 µM): > 10000 nM
- IC50 (curve of first compound, second compound 1 µM): > 10000 nM
- IC50 (curve of first compound, second compound 3.16 µM): > 10000 nM
- IC50 (curve of first compound, second compound 10 µM): > 10000 nM
- viability, T/C (second compound 0.0316 µM, first compound 0.0316 µM): 114%
- viability, T/C (second compound 0.0316 µM, first compound 0.1 µM): 167%
- viability, T/C (second compound 0.0316 µM, first compound 0.316 µM): 121%
- viability, T/C (second compound 0.0316 µM, first compound 1 µM): 102%
- viability, T/C (second compound 0.0316 µM, first compound 3.16 µM): 135%
- viability, T/C (second compound 0.0316 µM, first compound 10 µM): 129%
- viability, T/C (second compound 0.1 µM, first compound 0.0316 µM): 122%
- viability, T/C (second compound 0.1 µM, first compound 0.1 µM): 166%
- viability, T/C (second compound 0.1 µM, first compound 0.316 µM): 107%
- viability, T/C (second compound 0.1 µM, first compound 1 µM): 108%
- viability, T/C (second compound 0.1 µM, first compound 3.16 µM): 116%
- viability, T/C (second compound 0.1 µM, first compound 10 µM): 127%
- viability, T/C (second compound 0.316 µM, first compound 0.0316 µM): 150%
- viability, T/C (second compound 0.316 µM, first compound 0.1 µM): 147%
- viability, T/C (second compound 0.316 µM, first compound 0.316 µM): 94.9%
- viability, T/C (second compound 0.316 µM, first compound 1 µM): 110%
- viability, T/C (second compound 0.316 µM, first compound 3.16 µM): 95.8%
- viability, T/C (second compound 0.316 µM, first compound 10 µM): 112%
- viability, T/C (second compound 1 µM, first compound 0.0316 µM): 134%
- viability, T/C (second compound 1 µM, first compound 0.1 µM): 135%
- viability, T/C (second compound 1 µM, first compound 0.316 µM): 92.8%
- viability, T/C (second compound 1 µM, first compound 1 µM): 89.6%
- viability, T/C (second compound 1 µM, first compound 3.16 µM): 107%
- viability, T/C (second compound 1 µM, first compound 10 µM): 105%
- viability, T/C (second compound 3.16 µM, first compound 0.0316 µM): 110%
- viability, T/C (second compound 3.16 µM, first compound 0.1 µM): 123%
- viability, T/C (second compound 3.16 µM, first compound 0.316 µM): 72.8%
- viability, T/C (second compound 3.16 µM, first compound 1 µM): 68.3%
- viability, T/C (second compound 3.16 µM, first compound 3.16 µM): 65.4%
- viability, T/C (second compound 3.16 µM, first compound 10 µM): 102%
- viability, T/C (second compound 10 µM, first compound 0.0316 µM): 100%
- viability, T/C (second compound 10 µM, first compound 0.1 µM): 102%
- viability, T/C (second compound 10 µM, first compound 0.316 µM): 68.4%
- viability, T/C (second compound 10 µM, first compound 1 µM): 64.8%
- viability, T/C (second compound 10 µM, first compound 3.16 µM): 72.2%
- viability, T/C (second compound 10 µM, first compound 10 µM): 72.8%

Compound: C[C@@H](NC(=O)c1ncnc(N)c1Cl)c1ncc(C(=O)Nc2cc(C(F)(F)F)c(Cl)cn2)s1
- viability, T/C (compound 0.0316 µM): 116% [middle of 4 runs]
- viability, T/C (compound 0.316 µM): 101% [middle of 4 runs]
- viability, T/C (compound 1 µM): 100% (2×) and 109% and 117%
- viability, T/C (compound 3.16 µM): 106% [middle of 4 runs]
- IC50 (curve of compound): > 10000 nM
